# Data published in PubChem BioAssay (NCI).
# Values joined by “and” are separate entries in the source; they are usually repeats but may differ in a detail not shown here. Equal values may be shown once.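 96-well plates; 48 h exposure; 5 concentrations. Endpoints by linear interpolation between flanking doses. Not reached: highest tested concentration assigned. Abbreviation: GI50, concentration required for 50% inhibition of growth. Definition used: TGI = concentration required for complete inhibition of growth.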
# Tests used:
# Assay in all cases: NCI-60 cell line screen, 48 h
# LOX IMVI melanoma = tested on: LOX IMVI melanoma
# DU-145 prostate = tested on: DU-145 prostate
# T-47D breast = tested on: T-47D breast
# ACHN renal = tested on: ACHN renal
# SR leukemia = tested on: SR leukemia
# NCI-H226 lung = tested on: NCI-H226 lung
# U251 CNS = tested on: U251 CNS
# IGROV1 ovarian = tested on: IGROV1 ovarian
# OVCAR-8 ovarian = tested on: OVCAR-8 ovarian
# EKVX NSCLC = tested on: EKVX NSCLC
Structure (SMILES),GI50 (LOX IMVI melanoma),TGI (LOX IMVI melanoma),GI50 (DU-145 prostate),TGI (DU-145 prostate),GI50 (T-47D breast),TGI (T-47D breast),GI50 (ACHN renal),TGI (ACHN renal),GI50 (SR leukemia),TGI (SR leukemia),GI50 (NCI-H226 lung),TGI (NCI-H226 lung),GI50 (U251 CNS),TGI (U251 CNS),GI50 (IGROV1 ovarian),TGI (IGROV1 ovarian),GI50 (OVCAR-8 ovarian),TGI (OVCAR-8 ovarian),GI50 (EKVX NSCLC),TGI (EKVX NSCLC)
Cc1cc(NS(=O)(=O)c2ccc(-c3cnc(C4CC4)o3)cc2)ccc1Cl,0.386 µM,14 µM,0.455 µM,15.1 µM,0.323 µM,23.3 µM,0.586 µM,14.6 µM,0.0919 µM,45.6 µM,0.985 µM,17.5 µM,0.368 µM,14.9 µM,0.335 µM,13 µM,0.552 µM,17.7 µM,0.557 µM,17.1 µM
CCN(CC)CCOc1ccc(/C(=C(\C)Cc2ccc(OC)cc2)c2ccc(O)cc2)cc1,1.74 µM,3.17 µM,2.14 µM,5 µM,1.14 µM,3.52 µM,1.66 µM,3.1 µM,1.39 µM,3.62 µM,1.86 µM,4.26 µM,1.63 µM,3.09 µM,2.98 µM,10.3 µM,2.12 µM,5.14 µM,2.08 µM,6.19 µM
Nc1ncc(-c2ccc3ncnc(N4CCc5cc(F)c(Cl)cc54)c3c2)cc1C=O,2.52 µM,> 100 µM,0.936 µM,> 100 µM,0.587 µM,> 100 µM,0.638 µM,> 100 µM,2.67 µM,> 26 µM,0.861 µM,> 100 µM,2.7 µM,> 100 µM,0.314 µM,2.39 µM,2.54 µM,> 100 µM,0.371 µM,> 100 µM
CCN1CCCCCCCCCC(=N/O)/C(=N\O)C1,,> 100 µM,,> 100 µM,,> 100 µM,,> 100 µM,,> 100 µM,,> 100 µM,,> 100 µM,,> 100 µM,,> 100 µM,,> 100 µM
COc1ccc(/C=C/C(=O)OC2CC34CCNC35CC(OC5(OC)C2OC)c2ccc(OC)c(O)c24)cc1O (stereo unspecified),30.4 µM and > 100 µM,76.5 µM and > 100 µM,,> 100 µM,,> 100 µM,,> 100 µM,25.4 µM and > 100 µM,> 100 µM,,> 100 µM,38.2 µM and > 100 µM,> 100 µM,,> 100 µM,,> 100 µM,,> 100 µM
Cc1c(Br)c(Br)c2c3c1nc(N1CCNCC1)n3CCC2,1.49 µM,2.94 µM,1.67 µM,3.05 µM,2.35 µM,6.36 µM,1.39 µM,2.71 µM,1.6 µM,5.24 µM,1.95 µM,5.31 µM,1.86 µM,4.11 µM,1.41 µM,3.12 µM,2.08 µM,5.46 µM,1.9 µM,4.32 µM
c1ccc(C2=Nc3ccccc3N3CNN=C23)cc1,> 100 µM,> 100 µM,81.9 µM,> 100 µM,74.8 µM,> 100 µM,> 100 µM,> 100 µM,25 µM,> 100 µM,> 100 µM,> 100 µM,> 100 µM,> 100 µM,> 100 µM,> 100 µM,> 100 µM,> 100 µM,47.9 µM,> 100 µM
NC(=O)NC(=O)Nc1ccc(Br)cc1,,> 56.9 µM,,> 100 µM,,> 100 µM,,> 30.3 µM,,> 100 µM,,> 39.1 µM,,> 52.3 µM,,> 100 µM,,> 34.6 µM,,48.4 µM
CC[C@]1(O)CC2CN(CCc3c([nH]c4ccccc34)C(C(=O)OC)(c3cc4c(cc3OC)N(C=O)[C@H]3[C@@](O)(C(=O)OC)[C@H](OC(C)=O)[C@]5(CC)[C@@H]6C[C@@H]6CN6CC[C@]43[C@@H]65)C2)C1 (stereo partly specified),< 0.00325 µM,> 26 µM,< 0.00325 µM,< 0.00325 µM,0.228 µM,,0.0139 µM,> 23.5 µM,< 0.00325 µM,0.247 µM,0.245 µM,> 16.3 µM,< 0.00325 µM,0.146 µM,< 0.00325 µM,> 18 µM,< 0.00325 µM,,< 0.00325 µM,> 32.5 µM
CC(C)(Oc1cccc(N2CCC[C@@H](C(=O)N(Cc3ccc(-c4cn[nH]c4)cc3)C3CC3)C2)c1)C(=O)N1CCNCC1,11.8 µM,25 µM,14.5 µM,28 µM,12.6 µM,34.3 µM,16.1 µM,29.6 µM,7.87 µM,28.6 µM,5.43 µM,21 µM,12.6 µM,26.3 µM,12.3 µM,26.8 µM,18.6 µM,42.7 µM,13.7 µM,27.9 µM
CC1(C)CCC2(C(=O)O)C(O)CC3(C)C(=CCC4C5(C)CCC(OC6OCC(O)C(O)C6OC6OCC(O)C(O)C6OC6OCC(O)C(OC7OC(CO)C(O)C(O)C7O)C6O)C(C)(C)C5CCC43C)C2C1 (stereo unspecified),,> 100 µM,,> 100 µM,,> 100 µM,,> 100 µM,,37.9 µM,,> 100 µM,,> 100 µM,,> 100 µM,,> 100 µM,,> 100 µM
